Assay results reported in patent US20240300980A1, “HETEROCYCLIC COMPOUNDS AS KRAS INHIBITOR, AND PREPARATION THEREFOR AND USE THEREOF IN TREATMENT” (SHANGHAI KECHOW PHARMA, INC., priority 2021, published 2024).

What follows are compounds tested on AGS cells (KRAS^G12D) (assay: Detection of cell proliferation in vitro by MTT/MTS method (cell activity experiment)). Settings: AGS cells; MTT/MTS; 3 days of drug treatment; read-out: AGS IC50.
Format: cell-based
How it was run: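 After 3-day compound exposure (final DMSO 0.5%), viability of AGS (KRAS G12D) cells, plated 1000/well one day before dosing, was measured at 490 nm following 4 h MTT or MTS incubation. IC50 was fitted from dose–effect curves relative to DMSO-treated wells.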

SMILES	IC50 [nM]
C#Cc1c(F)ccc2cc(O)cc(-c3ccc4c(N5CCC(N)C5)nc(OC[C@@]56CCCN5C[C@H](F)C6)nc4c3F)c12 (stereo partly drawn) [Example 116, 4-(4-(3-aminopyrrolidin-1-yl)-8-fluoro-2-(((2R, 7aS)-2-fluorotetrahydro-1H-pyrrolizin-7a(5H)-yl)methoxy)quinazolin-7-yl)-5-ethynyl-6-fluoronaphthalen-2-ol]	> 2500

Same assay, conditions: Homo sapiens, AGS, 72 h, AGS cells; MTT/MTS; 3 days of drug treatment; read-out: AGS IC50

SMILES	IC50 [nM]
C#Cc1c(F)ccc2cc(O)cc(-c3ccc4c(N5C[C@H]6CC[C@@H](C5)N6)nc(OC[C@@]56CCCN5C[C@H](F)C6)nc4c3O)c12 [Example 328, 4-((1R,5S)-3,8-diazabicyclo[3.2.1]octan-3-yl)-7-(8-ethynyl-7-fluoro-3-hydroxynaphthalen-1-yl)-2-(((2R,7aS)-2-fluorotetrahydro-1H-pyrrolizin-7a(5H)-yl)methoxy)quinazolin-8-ol]	8910
CC1CCCc2cc(O)cc(-c3cc4nc(OC[C@@]56CCCN5C[C@H](F)C6)nc(N5C[C@H]6CC[C@@H](C5)N6)c4c4occc34)c21 (stereo partly drawn) [Example 387, 4-(9-((1R,5S)-3,8-diazabicyclo[3.2.1]octan-3-yl)-7-(((2R,7aS)-2-fluorotetrahydro-1H-pyrrolizin-7a(5H)-yl)methoxy)furo[2,3-f]quinazolin-4-yl)-5-methyl-5,6,7,8-tetrahydronaphthalen-2-ol]	481
C#Cc1c(F)ccc2cc(O)cc(-c3ncc4c(C5CCN(C(=O)CO)C5)nc(OC[C@@]56CCCN5C[C@H](F)C6)nc4c3F)c12 (stereo partly drawn) [Example 84, 1-(3-(7-(8-ethynyl-7-fluoro-3-hydroxynaphthalen-1-yl)-8-fluoro-2-(((2R,7aS)-2-fluorotetrahydro-1H-pyrrolizin-7a(5H)-yl)methoxy)pyrido[4,3-d]pyrimidin-4-yl)pyrrolidin-1-yl)-2-hydroxyethan-1-one]	> 10000
C#Cc1c(F)ccc2cc(O)cc(-c3ccc4c(N5CCC(N)C5)nc(OC[C@@]56CCCN5C[C@H](F)C6)nc4c3F)c12 (stereo partly drawn) [Example 111, 4-(4-(3-aminopyrrolidin-1-yl)-8-fluoro-2-(((2R,7aS)-2-fluorotetrahydro-1H-pyrrolizin-7a(5H)-yl)methoxy)quinazolin-7-yl)-5-ethynyl-6-fluoronaphthalen-2-ol]	> 2500
CCc1c(F)ccc2cc(O)cc(-c3ccc4c(N5C[C@H]6CC[C@@H](C5)N6)nc(OC[C@]56CCCN5[C@@H](COC(=O)N(C)C)CC6)nc4c3)c12 [Example 154, ((3R,7aR)-7a-(((4-((1R, 5S)-3,8-diazabicyclo [3.2.1]octan-3-yl)-7-(8-ethyl-7-fluoro-3-hydroxynaphthalen-1-yl)quinazolin-2-yl)oxy)methyl)hexahydro-1H-pyrrolizin-3-yl) methyl dimethylcarbamate]	195
Oc1cc(-c2cnc3c(N4C[C@H]5CC[C@@H](C4)N5)nc(OC[C@@]45CCCN4C[C@H](F)C5)nc3c2)c2c(F)c(F)ccc2c1 [Example 199, 4-(4-((1R,5S)-3,8-diazabicyclo[3.2.1]octan-3-yl)-2-(((2R,7aS)-2-fluorotetrahydro-1H-pyrrolizin-7a(5H)-yl)methoxy)pyrido[3,2-d]pyrimidin-7-yl)-5,6-difluoronaphthalen-2-ol]	> 2500
CCc1c(F)ccc2cc(O)cc(C3=C(F)c4nc(OC[C@@]56CCCN5C[C@H](F)C6)nc(N5C[C@H]6CC[C@@H](C5)N6)c4C4=NCCN43)c12 [Example 403, 4-(10-((1R,5S)-3,8-diazabicyclo[3.2.1]octan-3-yl)-6-fluoro-8-(((2R,7aS)-2-fluorotetrahydro-1H-pyrrolizin-7a(5H)-yl)methoxy)-2,3-dihydroimidazo[1′,2′:1,2]pyrido[4,3-d]pyrimidin-5-yl)-5-ethyl-6-fluoronaphthalen-2-ol]	60
C#Cc1c(F)ccc2cc(O)cc(-c3ccc4c(N5C[C@H]6CC[C@@H](C5)N6)c(C(F)(F)F)c(OC[C@@]56CCCN5C[C@H](F)C6)nc4c3F)c12 [Example 185, 4-(4-((1R,5S)-3,8-diazabicyclo[3.2.1]octan-3-yl)-8-fluoro-2-(((2R,7aS)-2-fluorotetrahydro-1H-pyrrolizin-7a(5H)-yl)methoxy)-3-(trifluoromethyl)quinolin-7-yl)-5-ethynyl-6-fluoronaphthalen-2-ol]	1350
C#Cc1c(F)ccc2cc(O)cc(-c3ccc4c(N5CC(C#N)C5)nc(OC[C@@]56CCCN5C[C@H](F)C6)nc4c3F)c12 [Example 134, 1-(7-(8-ethynyl-7-fluoro-3-hydroxynaphthalen-1-yl)-8-fluoro-2-(((2R, 7aS)-2-fluorotetrahydro-1H-pyrrolizin-7a(5H)-yl)methoxy)quinazolin-4-yl)azetidine-3-carbonitrile]	586
CCn1cnc2cc(O)cc(-c3ncc4c(N5C[C@H]6CC[C@@H](C5)N6)nc(OC[C@@]56CCCN5C[C@H](F)C6)nc4c3F)c21 [Example 278, 7-(4-((1R,5S)-3,8-diazabicyclo[3.2.1]octan-3-yl)-8-fluoro-2-(((2R,7aS)-2-fluorotetrahydro-1H-pyrrolizin-7a(5H)-yl)methoxy)pyrido[4,3-d]pyrimidin-7-yl)-1-ethyl-1H-benzo[d]imidazol-5-ol]	> 10000
CCC1CCCc2cc(O)cc(-c3c4c(c5c(N6C[C@H]7CC[C@@H](C6)N7)nc(OC[C@@]67CCCN6C[C@H](F)C7)nc5c3F)CCC4)c21 (stereo partly drawn) [Example 383, 4-(1-((1R,5S)-3,8-diazabicyclo[3.2.1]octan-3-yl)-5-fluoro-3-(((2R,7aS)-2-fluorotetrahydro-1H-pyrrolizin-7a(5H)-yl)methoxy)-8,9-dihydro-7H-cyclopenta[f]quinazolin-6-yl)-5-ethyl-5,6,7,8-tetrahydronaphthalen-2-ol]	50
C#Cc1c(F)ccc2cc(O)cc(-c3ccc4c(N5C[C@H]6CC[C@@H](C5)N6)nc(OCC5(CN6CCCC6)CC5)nc4c3F)c12 [Example 99, 4-(4-((1R,5S)-3,8-diazabicyclo[3.2.1]octan-3-yl)-8-fluoro-2-((1-(pyrrolidin-1-ylmethyl)cyclopropyl)methoxy)quinazolin-7-yl)-5-ethynyl-6-fluoronaphthalen-2-ol]	8.8
Oc1cc(-c2c3c(c4c(N5C[C@H]6CC[C@@H](C5)N6)nc(OC[C@@]56CCCN5C[C@H](F)C6)nc4c2F)CCC3)c2c(F)c(F)ccc2c1 [Example 380, 4-(1-((1R,5S)-3,8-diazabicyclo[3.2.1]octan-3-yl)-5-fluoro-3-(((2R,7aS)-2-fluorotetrahydro-1H-pyrrolizin-7a(5H)-yl)methoxy)-8,9-dihydro-7H-cyclopenta[f]quinazolin-6-yl)-5,6-difluoronaphthalen-2-ol]	95
C#Cc1c(F)ccc2cc(O)cc(-c3ncc4c(N5CC6CC(C5)N6)nc(OC[C@@]56CCCN5C[C@H](F)C6)nc4c3F)c12 [Example 45, 4-(4-(3,6-diazabicyclo [3.1.1]heptan-3-yl)-8-fluoro-2-(((2R,7aS)-2-fluorotetrahydro-1H-pyrrolizin-7a(5H)-yl)methoxy)pyrido[4,3-d]pyrimidin-7-yl)-5-ethynyl-6-fluoronaphthalen-2-ol]	39
Oc1cc(-c2c(Cl)cc3c(N4C[C@H]5CC[C@@H](C4)N5)nc(OC[C@@]45CCCN4C[C@H](F)C5)nc3c2OC2CC2)c2ccccc2c1 [Example 329, 4-(4-((1R,5S)-3,8-diazabicyclo[3.2.1]octan-3-yl)-6-chloro-8-cyclopropoxy-2-(((2R,7aS)-2-fluorotetrahydro-1H-pyrrolizin-7a(5H)-yl)methoxy)quinazolin-7-yl)naphthalen-2-ol]	260
